From patent US20220289691A1, “5-AMINO-SUBSTITUTED PYRAZOLES AND TRIAZOLES AS PEST CONTROL AGENTS” (Bayer Aktiengesellschaft, priority 2019, published 2022) come the findings set out here.

Common to all, as to type: in vivo
Assay [1] deals with Spodoptera frugiperda. Description: Spodoptera frugiperda spray test. As to conditions: foliar, 168 h, maize leaf discs, after 7 days, read-out: efficacy (caterpillars killed). The method, boiled down: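 Compound was dissolved in acetone/dimethylformamide and diluted with water containing 1000 ppm alkylaryl polyglycol ether emulsifier to test concentrations. Maize leaf discs were sprayed, dried and infested with fall armyworm caterpillars. Efficacy (% caterpillars killed) was scored after 7 days.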

In assay [2] the test system is Diabrotica balteata. Description: Diabrotica balteata spray test. As to conditions: 168 h, beetle larvae on wheat, after 7 days, read-out: efficacy (wheat plant growth); for pest or weed control at 125 g/ha: 125 g/ha (=40 μg/cavity); for pest or weed control at 500 g/ha: 500 g/ha (=160 μg/cavity); for pest or weed control at 100 g/ha: 100 g/ha (=32 μg/cavity). The method, boiled down: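 Germinated wheat seedlings in agar multiwell plates were sprayed with compound in acetone/DMF with emulsifier-containing water, then infested with 10-20 Diabrotica balteata larvae. After 7 days, efficacy (%) scored by plant growth: 100% equals untreated, uninfested control, 0% no plants grown.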

Assay [3] has as its system Meloidogyne incognita. Description: Meloidogyne incognita test. As to conditions: 336 h, lettuce, after 14 days, read-out: nematicidal efficacy (formation of galls). The procedure:
Meloidogyne incognita Test Solvent: 125.0 parts by weight of acetone
To produce a suitable active compound formulation, 1 part by weight of active compound is mixed with the stated amount of solvent and the concentrate is diluted to the desired concentration with water.
Vessels are filled with sand, active compound solution, an egg/larvae suspension of the southern root-knot nematode (Meloidogyne incognita) and lettuce seeds. The lettuce seeds germinate and the plants develop. The galls develop on the roots.
After 14 days, the nematicidal efficacy in % is determined by the formation of galls. 100% means that no galls were found; 0% means that the number of galls on the treated plants corresponds to the untreated control.

The test system of assay [4] is Phaedon cochleariae. Description: Phaedon cochleariae spray test. As to conditions: foliar, 168 h, Chinese cabbage leaf discs, after 7 days, read-out: efficacy (beetle larvae killed). The procedure: Phaedon cochleariae—Spray Test Solvent: 78.0 parts by weight of acetone • • 1.5 parts by weight of dimethylformamide Emulsifier: alkylaryl polyglycol ether
To produce a suitable active compound formulation, 1 part by weight of active compound is dissolved using the stated parts by weight of solvent and made up with water containing an emulsifier concentration of 1000 ppm until the desired concentration is attained. To produce further test concentrations, the formulation is diluted with emulsifier-containing water.
Discs of Chinese cabbage leaves (Brassica pekinensis) are sprayed with an active compound formulation of the desired concentration and, after drying, populated with larvae of the mustard beetle (Phaedon cochleariae).
After 7 days, the efficacy in % is determined. 100% means that all the beetle larvae have been killed; 0% means that no beetle larvae have been killed.

Assay [5] relates to Musca domestica. Description: Musca domestica test. As to conditions: 100 ppm, adult houseflies, after 2 days. How it is done: (§1) Solvent: Dimethyl Sulfoxide
To produce a suitable active compound formulation, 10 mg of active compound are mixed with 0.5 ml of dimethyl sulfoxide, and the concentrate is diluted with water to the desired concentration.
Vessels containing a sponge treated with sugar solution and the desired concentration of active compound formulation are populated with 10 adult houseflies (Musca domestica).
After 2 days, the kill in % is determined. 100% means that all of the flies have been killed; 0% means that none of the flies have been killed.

In assay [6] the test system is Ctenocephalides felis. Description: Ctenocephalides felis oral test. As to conditions: 48 h, 100 ppm in citrated cattle blood, adult cat fleas, after 2 days, read-out: efficacy (kill). How it is done: Ctenocephalides felis—Oral Test
as §1
To produce a suitable active compound formulation, 10 mg of active compound are mixed with 0.5 ml of dimethyl sulfoxide. Dilution with citrated cattle blood gives the desired concentration.
About 20 unfed adult cat fleas (Ctenocephalides felis) are placed into a chamber which is closed at the top and bottom with gauze. A metal cylinder whose bottom end is closed with parafilm is placed onto the chamber. The cylinder contains the blood/active compound formulation, which can be imbibed by the fleas through the parafilm membrane.
After 2 days, the kill in % is determined. 100% means that all of the fleas have been killed; 0% means that none of the fleas have been killed.

Assay [7] has as its system Ctenocephalides felis. Description: Ctenocephalides felis in vitro contact test with adult cat fleas. As to conditions: 5 μg/cm^2 (=500 g of ai/ha), after 48 h, read-out: efficacy (fleas dead or moribund). How it is done: Ctenocephalides felis—In Vitro Contact Tests with Adult Cat Fleas
For the coating of the test tubes, 9 mg of active compound are first dissolved in 1 ml of acetone p.a. and then diluted to the desired concentration with acetone p.a. 250 μl of the solution are distributed homogeneously on the inner walls and the base of a 25 ml glass tube by turning and rocking on an orbital shaker (rocking rotation at 30 rpm for 2 h). With 900 ppm of active compound solution and internal surface area 44.7 cm^2, given homogeneous distribution, an area-based dose of 5 μg/cm^2 is achieved.
After the solvent has evaporated off, the tubes are populated with 5-10 adult cat fleas (Ctenocephalides felis), sealed with a perforated plastic lid and incubated in a horizontal position at room temperature and ambient humidity. After 48 h, efficacy is determined. To this end, the tubes are stood upright and the fleas are knocked to the base of the tube. Fleas which remain motionless at the base or move in an uncoordinated manner are considered to be dead or moribund.
100% efficacy means that all the fleas were dead or moribund. 0% efficacy means that no fleas were harmed.

As to `CCN(CC)c1nc(-c2ccc(C=NNC(=S)Nc3ccccc3C(C)C)cc2)nn1-c1ccc(OC(F)(F)F)cc1` [Compound I-020], the pest or weed control at 100 g/ha in assay [1] amounted to 100%. Further, in assay [2], the pest or weed control at 125 g/ha was found to be 80% and the pest or weed control at 500 g/ha is 100%. Also, in assay [3], the pest or weed control at 20 ppm was found to be 100%.

`CNc1nc(-c2ccc(C=NNC(=S)Nc3ccccc3C(C)C)c(F)c2)nn1-c1ccc(OC(F)(F)F)cc1` [Compound I-104]: the pest or weed control at 100 g/ha in assay [1] and in assay [2] was 100% throughout. The pest or weed control at 20 ppm in assay [3] turned out to be 90%.

`CO[C@@H]1[C@@H](OC)[C@H](C)O[C@@H](OC(=O)Nc2ccc(-c3nc(NC(C)=O)n(-c4ccc(OC(F)(F)C(F)(F)F)cc4)n3)cc2)[C@@H]1OC` [Compound I-008]: in assay [1], the pest or weed control at 100 g/ha is 100% and the pest or weed control at 500 g/ha was 100%. For the same compound, in assay [4], the pest or weed control at 100 g/ha was 100% and the pest or weed control at 500 g/ha was 100%. Besides, the “efficacy (kill)” value in assay [5] stood at 80%. Also, in assay [6], the pest or weed control at 100 ppm was 100%.

As to `CC(C)Nc1nc(-c2ccc(C=NNC(=S)Nc3ccccc3C(C)C)cc2)nn1-c1ccc(OC(F)(F)F)cc1` [Compound I-052], the pest or weed control at 100 g/ha in assay [1] and in assay [2] was 100% each time. Also, in assay [3], the pest or weed control at 20 ppm stood at 100%.

In the case of `CNc1nc(-c2cc(F)c(C=NNC(=S)Nc3ccccc3C(C)C)c(F)c2)nn1-c1ccc(OC(F)(F)F)cc1` [Compound I-107], the pest or weed control at 100 g/ha in assay [1] and in assay [2] was 100% in each case. The pest or weed control at 20 ppm in assay [3] came out at 90%.

As to `CNc1nc(-c2ccc(NC(=O)N=C3SCC(=O)N3c3cc(OC)ccc3C(C)C)cc2)nn1-c1ccc(OC(F)(F)C(F)(F)F)cc1` [Compound I-083], the pest or weed control at 100 g/ha in assay [1] and in assay [2] was 100% throughout. For the same compound, the pest or weed control at 5 µg/cm2 in assay [7] stood at 90%.

Regarding `CNc1nc(-c2ccc(C=NN=C3SCC(=O)N3c3cc(OC)ccc3C(C)C)cc2)nn1-c1ccc(OC(F)(F)F)cc1` [Compound I-090], the pest or weed control at 100 g/ha in assay [1] and in assay [2] was 100% in each case. Moreover, the pest or weed control at 5 µg/cm2 in assay [7] was 100%.

Turning to `CCO[C@@H]1[C@@H](OC)[C@H](C)O[C@@H](OC(=O)Nc2ccc(-c3nc(NC(=O)C4CC4)n(-c4ccc(OC(F)(F)C(F)(F)F)cc4)n3)cc2)[C@@H]1OC` [Compound I-002], in assay [1], the pest or weed control at 100 g/ha was 100% and the pest or weed control at 500 g/ha stood at 100%. In addition, in assay [4], the pest or weed control at 100 g/ha was 83% and the pest or weed control at 500 g/ha is 100%. Besides, in assay [5], the “efficacy (kill)” value turned out to be 90%. Moreover, in assay [6], the pest or weed control at 100 ppm came to 100%.

In the case of `CNc1nc(-c2ccc(C=NN=C3SCCCN3c3ccccc3C(C)C)cc2)nn1-c1ccc(OC(F)(F)F)cc1` [Compound I-117], the pest or weed control at 100 g/ha in assay [1] and in assay [2] was 100% throughout. For the same compound, the pest or weed control at 5 µg/cm2 in assay [7] came to 100%.

With `CNc1nc(-c2ccc(NC(=O)N=C3SCC(=O)N3c3cc(C)ccc3C(C)C)cc2)nn1-c1ccc(OC(F)(F)C(F)(F)F)cc1` [Compound I-079], the pest or weed control at 100 g/ha in assay [1] and in assay [2] was 100% in each case. In assay [7], the pest or weed control at 5 µg/cm2 is 100%.

On to `CNc1nc(-c2ccc(C=NN=C3SCC(=O)N3c3ccccc3C(C)C)c(F)c2)nn1-c1ccc(OC(F)(F)F)cc1` [Compound I-105], for which the pest or weed control at 100 g/ha in assay [1] and in assay [2] was 100% each time. Further, the pest or weed control at 20 ppm in assay [3] turned out to be 90%.

On to `CNc1nc(-c2ccc(C=NN=c3scc(C)n3-c3ccccc3C(C)C)cc2)nn1-c1ccc(OC(F)(F)F)cc1` [Compound I-097, 3-[4-({[3-(2-isopropylphenyl)-4-methyl-1,3-thiazol-2(3H)-ylidene]hydrazono}methyl)phenyl]-N-methyl-1-[4-(trifluoromethoxy)phenyl]-1H-1,2,4-triazol-5-amine], for which the pest or weed control at 100 g/ha in assay [1] is 83%; in assay [2], 100%. For the same compound, the pest or weed control at 5 µg/cm2 in assay [7] turned out to be 100%.

As to `CNc1nc(-c2ccc(C=NNC(=S)Nc3ccccc3C(C)C)cc2Cl)nn1-c1ccc(OC(F)(F)F)cc1` [Compound I-108], the pest or weed control at 100 g/ha in assay [1] and in assay [2] was 100% each time. Further, the pest or weed control at 20 ppm in assay [3] is 90%.

Take `CC(C)c1ccccc1NC(=S)NN=Cc1ccc(-c2nc(NC3CC3)n(-c3ccc(OC(F)(F)F)cc3)n2)cc1` [Compound I-051]: the pest or weed control at 100 g/ha in assay [1] came out at 100%. In addition, in assay [2], the pest or weed control at 100 g/ha came to 100% and the pest or weed control at 500 g/ha amounted to 100%. The pest or weed control at 20 ppm in assay [3] is 90%.

In the case of `CNc1nc(-c2cc(F)c(C=NN=C3SCC(=O)N3c3ccccc3C(C)C)cc2F)nn1-c1ccc(OC(F)(F)F)cc1` [Compound I-111], the pest or weed control at 100 g/ha in assay [1] and in assay [2] was 100% in each case. Besides, the pest or weed control at 20 ppm in assay [3] was found to be 100%.

For the compound `CNc1nc(-c2ccc(C=NNC(=S)Nc3ccccc3C(C)C)cc2F)nn1-c1ccc(OC(F)(F)F)cc1` [Compound I-109], the pest or weed control at 100 g/ha in assay [1] and in assay [2] was 100% throughout. Further, in assay [3], the pest or weed control at 20 ppm came out at 90%.

Take `CC(=O)Nc1nc(-c2ccc(C=NNC(=S)Nc3ccccc3C(C)C)cc2)nn1-c1ccc(OC(F)(F)F)cc1` [Compound I-009]: the pest or weed control at 100 g/ha in assay [1] and in assay [4] was 100% each time. For the same compound, in assay [7], the pest or weed control at 5 µg/cm2 amounted to 100%. The pest or weed control at 100 ppm in assay [6] is 100%.

For the compound `CC(=O)Nc1nc(-c2ccc(C=NN=C3SCC(=O)N3c3ccccc3C(C)C)cc2)nn1-c1ccc(OC(F)(F)F)cc1` [Compound I-032], the pest or weed control at 100 g/ha in assay [1] was found to be 100%. Further, in assay [2], the pest or weed control at 125 g/ha amounted to 100% and the pest or weed control at 500 g/ha worked out at 100%. Further, the pest or weed control at 5 µg/cm2 in assay [7] was 80%.

With `CC(=O)Nc1nc(-c2ccc(C(C)=NNC(=S)Nc3ccccc3C(C)C)cc2)nn1-c1ccc(OC(F)(F)F)cc1` [Compound I-017], the pest or weed control at 100 g/ha in assay [1] and in assay [4] was 100% each time. Also, the pest or weed control at 100 ppm in assay [6] worked out at 95%. For the same compound, the pest or weed control at 20 ppm in assay [3] was found to be 90%.
